Data from US10392383B2, “3-(1H-benzo[d]imidazol-2-yl)-1H-pyrazolo[4,3-b]pyridines and therapeutic uses thereof” (Samumed, LLC, priority 2015, dated 2019).

What was measured:
Format in all cases: cell-based
IL-6 (THP-1 cells) = assay: IL-6 inhibition in LPS-stimulated THP-1 monocytes (HTRF); conditions: Homo sapiens, IL-6 HTRF; for EC50: 500 ng/mL LPS, Table 6; for inhibition at 10 µM: LPS, Table 6, read-out: percent inhibition at 10 μM (given in parentheses for EC50 >10 μM)
Method: Human Monocyte Cell Culture: Human monocyte cell line (THP-1 cells; Catalog # TIB-202, ATCC, Manassas, Va.) were cultured in Roswell Park Memorial Institute (RPMI) 1640 Medium (Catalog #21870-100, Buffalo, N.Y.) with 1% L-glutamine, 1% HEPES, 1% Sodium Pyruvate, 2% Sodium Bicarbonate supplemented with 100 units/mL penicillin, 50 μg/mL streptomycin, 2-mercaptoethanol (0.05 mM) [basal medium] and 10% fetal bovine serum (Catalog #16140089, Life Technologies, Carlsbad, Calif.) at 37° C. and 5% CO2.
Compound Screening: THP-1 cells were cultured in basal media with 1% FBS for 24 hours before the start of the assay. Each compound was dissolved in DMSO as a 10 mM stock and used to prepare compound source plates. Serial dilution (1:3, 10-point dose-response curves starting from 10 μM) and compound transfer was performed using the ECHO 550 (Labcyte, Sunnyvale, Calif.) into 384-well white low volume assay plates (Greiner Bio-One) with appropriate DMSO backfill for a final DMSO concentration of 0.1%. THP-1 cells were plated at 5000 cells/well in the 384-well plates and incubated at 37° C. for 2 h. 500 ng/mL of LPS was added after 2 hours and cells were incubated for another 22 hours at 37° C. Plates were spun in a centrifuge for 1 minute at […] and a mixture of anti-IL6 XL665, and anti-IL6 Cryptate diluted in reconstitution buffer (Cisbio Inc.) was added to each well. Following incubation for 3 hrs at room temperature, Homogeneous Time-Resolved Fluorescence (HTRF) was measured using the Envision (Perkin Elmer) at 665 nm and […]. The ratio of fluorescence at 665 nm to 620 nm was used as a readout for IL6 quantification. All samples were processed in duplicate. Readings were normalized to DMSO treated cells and normalized activities were utilized for EC50 calculations using the dose-response log (inhibitor) vs. response-variable slope (four parameters) nonlinear regression feature available in GraphPad Prism 5.0 (or Dotmatics). For EC50 of >10 μM, the percent inhibition at 10 μM is provided.

SW480 colon cancer cells = assay: Cell viability assay (CellTiter-Blue) in SW480 cells; conditions: Homo sapiens, 96 h, four days; for EC50: CellTiter-Blue, 10 μM to 0.0045 μM; for inhibition at 10 µM: read-out: percent inhibition at 10 μM (given for EC50 of >10 μM)
Method: Representative compounds were screened using the following assay procedure to assess the effect on cell viability as described below.
Each compound was dissolved in DMSO as a 10 mM stock and used to prepare compound source plates. Serial dilution (1:3, 8-point dose-response curves from 10 μM to 0.0045 μM) and compound transfer was performed using the ECHO 550 (Labcyte, Sunnyvale, Calif.) into 96-well clear bottom, black-walled plates (Corning-Costar).
Approximately 2×10^3 SW480 colon cancer cells were seeded into each well and allowed to incubate in the presence or absence of compound for four days at 37° C./5% CO2. Eight replicates of DMSO-treated cells served as controls and cells treated with compound were performed in duplicate.
After incubation, 20 μL of CellTiter-Blue (Promega) was added to each well allowed to incubate for approximately 3 hours. This reagent was a buffered solution which contains resazurin, metabolically active cells were able to reduce rezarurin (blue) into resorufin (pink) which was highly fluorescent. This measured fluorescence was used as a readout for cell viability.
After incubation, the plates were read at Ex 560 nm Em 590 nm (Cytation 3, BioTek). Dose-response curves were generated and EC50 concentration values were calculated using non-linear regression curve fit in the GraphPad Prism (San Diego, Calif.) or Dotmatics' Studies Software (Bishops Stortford, UK). For EC50 of >10 μM, the percent inhibition at 10 μM is provided.

[1] = test system: primary human fibroblasts derived from IPF patients (LL29 cells) treated with TGF-β1; assay: Inhibition of the fibrotic process: αSMA staining in TGF-β1-treated LL29 fibroblasts; conditions: Fibroblast; for EC50: 96 h, LL29 fibroblasts treated with TGF-β1 (20 ng/mL), 4 days, Table 4; for inhibition at 10 µM: LL29 fibroblasts treated with TGF-β1, Table 4, read-out: percent inhibition at 10 μM (given in parentheses for EC50 >10 μM)
From the text: Representative compounds were screened using primary human fibroblasts (derived from IPF patients) treated with TGF-β1 to determine their ability to inhibit the fibrotic process.
Human Fibroblast Cell Culture: Primary human fibroblasts derived from IPF patients (LL29 cells) [^1Xiaoqiu Liu, et. al., “Fibrotic Lung Fibroblasts Show Blunted Inhibition by cAMP Due to Deficient cAMP Response Element-Binding Protein Phosphorylation”, Journal of Pharmacology and Experimental Therapeutics (2005), 315(2), 678-687; ^2Watts, K. L., et. al., “RhoA signaling modulates cyclin D1 expression in human lung fibroblasts; implications for idiopathic pulmonary fibrosis”, Respiratory Research (2006), 7(1), 88] were obtained from American Type Culture Collection (ATCC) and expanded in F12 medium supplemented with 15% Fetal Bovine Serum and Penicillin/Streptomycin.
Compound Screening: Each compound was dissolved in DMSO as a 10 mM stock and used to prepare compound source plates. Serial dilution (1:2, 11-point dose-response curves from 10 μM to […]) and compound transfer was performed using the ECHO 550 (Labcyte, Sunnyvale, Calif.) into 384-well clear bottom assay plates (Greiner Bio-One) with appropriate DMSO backfill for a final DMSO concentration of 0.1%. LL29 cells are plated at 1,500 cells/well in 80 μL/well F12 medium supplemented with 1% Fetal Bovine Serum. One hour after addition of the cells, TGF-β1 (Peprotech; 20 ng/mL) was added to the plates to induce fibrosis (ref. 1 and 2 above). Wells treated with TGF-β1 and containing DMSO were used as controls. Cells were incubated at 37° C. and 5% CO2 for 4 days. Following incubation for 4 days, SYTOX green nucleic acid stain (Life Technologies [Thermo Fisher Scientific]) was added to the wells at a final concentration of 1 μM and incubated at room temperature for 30 min. Cells were then fixed using 4% formaldehyde (Electron Microscopy Sciences), washed 3 times with PBS followed by blocking and permeabilization using 3% Bovine Serum Albumin (BSA; Sigma) and 0.3% Triton X-100 (Sigma) in PBS. Cells were then stained with antibody specific to α-smooth muscle actin (αSMA; Abcam) (ref. 1 and 2 above) in 3% Bovine Serum Albumin (BSA; Sigma) and 0.3% Triton X-100 (Sigma) in PBS, and incubated overnight at 4° C. Cells were then washed 3 times with PBS, followed by incubation with Alexa Flor-647 conjugated secondary antibody (Life Technologies [Thermo Fisher Scientific]) and DAPI at room temperature for 1 hour. Cells were then washed 3 times with PBS and plates were sealed for imaging. αSMA staining was imaged by excitation at 630 nm and emission at 665 nm and quantified using the Compartmental Analysis program on the CellInsight CX5 (Thermo Scientific). Dead or apoptotic cells were excluded from analysis based on positive SYTOX green staining. % of total cells positive for αSMA were counted in each well and normalized to the average of 11 wells treated with TGF-β1 on the same plate using Dotmatics' Studies Software. The normalized averages (fold change over untreated) of 3 replicate wells for each compound concentration were used to create dose-responses curves and EC50 values were calculated using non-linear regression curve fit in the Dotmatics' Studies Software. For EC50 of >10 μM, the percent inhibition at 10 μM is provided.

## CN(C)Cc1cncc(-c2ccc3[nH]nc(-c4nc5c(N6CCCCC6)cccc5[nH]4)c3n2)c1 [Compound 181, N,N-dimethyl-1-(5-(3-(4-(piperidin-1-yl)-1H-benzo[d]imidazol-2-yl)-1H-pyrazolo[4,3-b]pyridin-5-yl)pyridin-3-yl)methanamine]
IL-6 (THP-1 cells)
  EC50: 4.94 µM
SW480 colon cancer cells
  EC50: 1.14 µM
[1]
  EC50: 0.785 µM

## CN1CCN(c2cccc3[nH]c(-c4n[nH]c5ccc(-c6cncc(N)c6)nc45)nc23)CC1 [Compound 227, 5-(3-(4-(4-Methylpiperazin-1-yl)-1H-benzo[d]imidazol-2-yl)-1H-pyrazolo [4,3-b]pyridin-5-yl)pyridin-3-amine]
IL-6 (THP-1 cells)
  EC50: 8.32 µM
SW480 colon cancer cells
  inhibition at 10 µM: 18.4%
  EC50: > 10 µM
[1]
  inhibition at 10 µM: 32.1%
  EC50: > 10 µM

## CC(C)C(=O)Nc1cncc(-c2ccc3[nH]nc(-c4nc5c(N6CCN(C)CC6)cccc5[nH]4)c3n2)c1 [Compound 233, N-(5-(3-(4-(4-Methylpiperazin-1-yl)-1H-benzo[d]imidazol-2-yl)-1H-pyrazolo[4,3-b]pyridin-5-yl)pyridin-3-yl)isobutyramide]
IL-6 (THP-1 cells)
  EC50: > 10 µM
  inhibition at 10 µM: 42.9%
SW480 colon cancer cells
  inhibition at 10 µM: 6.4%
  EC50: > 10 µM
[1]
  inhibition at 10 µM: 24.7%
  EC50: > 10 µM

## CN1CCN(c2cccc3[nH]c(-c4n[nH]c5ccc(-c6cncnc6)nc45)nc23)CC1 [Compound 251, 3-(4-(4-Methylpiperazin-1-yl)-1H-benzo[d]imidazol-2-yl)-5-(pyrimidin-5-yl)-1H-pyrazolo[4,3-b]pyridine]
IL-6 (THP-1 cells)
  EC50: 2.23 µM
SW480 colon cancer cells
  inhibition at 10 µM: 0%
  EC50: > 10 µM
[1]
  EC50: 2.43 µM

## O=C(Cc1ccccc1)Nc1cncc(-c2ccc3[nH]nc(-c4nc5ccccc5[nH]4)c3n2)c1 [Compound 262, N-(5-(3-(1H-Benzo[d]imidazol-2-yl)-1H-pyrazolo[4,3-b]pyridin-5-yl)pyridin-3-yl)-2-phenylacetamide]
IL-6 (THP-1 cells)
  EC50: 1.09 µM
SW480 colon cancer cells
  inhibition at 10 µM: 13.9%
  EC50: > 10 µM
[1]
  inhibition at 10 µM: 0%
  EC50: > 10 µM

## O=C(Nc1cncc(-c2ccc3[nH]nc(-c4nc5c(-c6ccsc6)cccc5[nH]4)c3n2)c1)c1ccccc1 [Compound 291, N-(5-(3-(4-(Thiophen-3-yl)-1H-benzo[d]imidazol-2-yl)-1H-pyrazolo[4,3-b]pyridin-5-yl)pyridin-3-yl)benzamide]
IL-6 (THP-1 cells)
  EC50: > 10 µM
  inhibition at 10 µM: 28.9%
SW480 colon cancer cells
  EC50: 3.46 µM
[1]
  EC50: 2.62 µM

## Cc1ccc(-c2cccc3[nH]c(-c4n[nH]c5ccc(-c6cncc(NC(=O)C7CCCC7)c6)nc45)nc23)s1 [Compound 414, N-(5-(3-(4-(5-Methylthiophen-2-yl)-1H-benzo[d]imidazol-2-yl)-1H-pyrazolo [4,3-b]pyridin-5-yl)pyridin-3-yl)cyclopentanecarboxamide]
IL-6 (THP-1 cells)
  EC50: 0.0983 µM
SW480 colon cancer cells
  inhibition at 10 µM: 0%
  EC50: > 10 µM
[1]
  inhibition at 10 µM: 42.2%
  EC50: > 10 µM

## CS(=O)(=O)NCc1cc(F)cc(-c2cccc3[nH]c(-c4n[nH]c5ccc(-c6cncc(NC(=O)c7ccccc7)c6)nc45)nc23)c1 [Compound 487, N-(5-(3-(4-(3-Fluoro-5-(methylsulfonamidomethyl)phenyl)-1H-benzo[d]imidazol-2-yl)-1H-pyrazolo[4,3-b]pyridin-5-yl)pyridin-3-yl)benzamide]
IL-6 (THP-1 cells)
  EC50: > 10 µM
  inhibition at 10 µM: 0%
SW480 colon cancer cells
  inhibition at 10 µM: 9.7%
  EC50: > 10 µM
[1]
  inhibition at 10 µM: 0%
  EC50: > 10 µM

## Fc1cccc(-c2cccc3[nH]c(-c4n[nH]c5ccc(C6=CCNCC6)nc45)nc23)c1 [Compound 506, 3-(4-(3-Fluorophenyl)-1H-benzo[d]imidazol-2-yl)-5-(1,2,3,6-tetrahydropyridin-4-yl)-1H-pyrazolo[4,3-b]pyridine]
IL-6 (THP-1 cells)
  EC50: > 10 µM
  inhibition at 10 µM: 25.9%
SW480 colon cancer cells
  EC50: 4.16 µM
[1]
  EC50: 1.6 µM

## Fc1cccc(-c2cccc3[nH]c(-c4n[nH]c5ccc(-c6cn[nH]c6)nc45)nc23)c1 [Compound 507, 3-(4-(3-Fluorophenyl)-1H-benzo[d]imidazol-2-yl)-5-(1H-pyrazol-4-yl)-1H-pyrazolo[4,3-b]pyridine]
IL-6 (THP-1 cells)
  EC50: > 10 µM
  inhibition at 10 µM: 31.7%
SW480 colon cancer cells
  EC50: 0.975 µM
[1]
  EC50: 2.98 µM

## Fc1cccc(-c2cccc3[nH]c(-c4n[nH]c5ccc(-c6cnccn6)nc45)nc23)c1 [Compound 520, 3-(4-(3-Fluorophenyl)-1H-benzo[d]imidazol-2-yl)-5-(pyrazin-2-yl)-1H-pyrazolo[4,3-b]pyridine]
IL-6 (THP-1 cells)
  EC50: > 10 µM
  inhibition at 10 µM: 43.3%
SW480 colon cancer cells
  EC50: 1.79 µM
[1]
  EC50: 4.29 µM

## c1cc(-c2ccncc2)c2nc(-c3n[nH]c4ccc(-c5cncc(OC6CCNCC6)c5)nc34)[nH]c2c1 [Compound 576, 5-(5-(Piperidin-4-yloxy)pyridin-3-yl)-3-(4-(pyridin-4-yl)-1H-benzo[d]imidazol-2-yl)-1H-pyrazolo[4,3-b]pyridine]
IL-6 (THP-1 cells)
  EC50: > 10 µM
  inhibition at 10 µM: 37%
SW480 colon cancer cells
  inhibition at 10 µM: 9%
  EC50: > 10 µM
[1]
  inhibition at 10 µM: 9.2%
  EC50: > 10 µM
